Test results as given in US20240390407A1, “PROMOTER FOR DIFFERENTIATION INTO CARTILAGE CELL, CARTILAGE CELL PROPAGATION PROMOTER, AND CARTILAGE MATRIX PRODUCTION PROMOTER” (HOKURIKU UNIVERSITY, priority 2021, published 2024).

Experiments:
Assay type in all cases: cell-based
[1] = test system: chondrogenic progenitor ATDC5 cells; assay: Detection of glycosaminoglycan by Alcian blue staining (absorbance at 620 nm); details: day 24 of culture
Experimental: (§1) Using chondrogenic progenitor ATDC5 cells, the effects of liquiritin on the differentiation of chondrogenic progenitor cells into chondrocytes, proliferation of chondrocytes, and production of cartilaginous matrix were investigated as follows.
(§2) ATDC5 cells (obtained from RIKEN BioResource Research Center) were seeded at 1×10^4 cells/well in a microplate containing 0.5 mL of Dulbecco's modified Eagle medium (DMEM)/Ham's F-12 medium (manufactured by FUJIFILM Wako Pure Chemical Corporation), and cultured at 37° C. in the presence of 5% by volume carbon dioxide. […]
On day 24 of culture, the cells were fixed with 95% by volume ethanol, and then stained with Alcian blue staining solution (prepared with 1% Alcian blue and 3% acetic acid aqueous solution, pH=2.5), and glycosaminoglycan was detected.
Then, the Alcian blue dye of the stained cultured cells was solubilized with 6M guanidine hydrochloride, and the absorbance at 620 nm was measured using a plate reader (Infinite 200 PRO, manufactured by Tecan Japan Co., Ltd., for each liquiritin concentration and control, n=4). The measurement results are shown in FIG. 1 as meantstandard deviation based on relative values when the absorbance in the control is 100. […]

[2] = test system: chondrogenic progenitor ATDC5 cells; assay: Measurement of number of cells under microscope
Experimental: Using chondrogenic progenitor ATDC5 cells, the effects of liquiritin on the differentiation of chondrogenic progenitor cells into chondrocytes, proliferation of chondrocytes, and production of cartilaginous matrix were investigated as follows. ATDC5 cells (obtained from RIKEN BioResource Research Center) were seeded at 1×10^4 cells/well in a microplate containing 0.5 mL of Dulbecco's modified Eagle medium (DMEM)/Ham's F-12 medium (manufactured by FUJIFILM Wako Pure Chemical Corporation), and cultured at 37° C. in the presence of 5% by volume carbon dioxide. […] In addition, on day 24 of culture, the cells were washed with 10 mM phosphate buffered saline (pH=7.4), the cells were detached using 0.25 (w/v) % trypsin-1 mM tetrasodium ethylenediaminetetraacetate solution (manufactured by FUJIFILM Wako Pure Chemical Corporation), the number of cells in the cell suspension was observed under an inverted culture microscope (CK40, manufactured by Olympus Corporation) (magnification=10x), and the number of cells was measured (n=4 for each). […]

[3] = test system: chondrogenic progenitor ATDC5 cells; assay: Quantification of intracellular sulfated glycosaminoglycan (dimethylmethylene blue, absorbance at 525 nm)
Experimental: as §1, §2
Each sample (20 μL) was blended with 200 μL of a 16 mg/L dimethylmethylene blue solution (prepared with an aqueous solution (pH=3.0) containing 40 mM glycine, 27 mM sodium chloride, and 10 mM acetic acid), and the absorbance at 525 nm was measured and sulfated glycosaminoglycan in the sample was quantified (n=4 for each). The quantification results are shown in FIG. 2 as meantstandard deviation. As regards the quantification results, an unpaired t-test was performed between each group added with liquiritin at the above-mentioned concentration and the control.

[4] = test system: chondrogenic progenitor ATDC5 cells; assay: Content of DNA in cell digestive fluid as index of cell number; details: day 24 of culture; at 10 μM and 20 μM significant at P<0.01 vs control (FIG. 3)
Experimental: as §1
ATDC5 cells (obtained from RIKEN BioResource Research Center) were seeded at 1×10^4 cells/well in a microplate containing 0.5 mL of Dulbecco's modified Eagle medium (DMEM)/Ham's F-12 medium (manufactured by FUJIFILM Wako Pure Chemical Corporation), and cultured at 37° C. in the presence of 5% by volume carbon dioxide.
On days 3, 6, 9, 12, 15, 18 and 21 of culture, transferrin and sodium selenite, which are differentiation-inducing reagents, were each added to the aforementioned medium at final concentrations of 10 μg/mL and 30 nM, respectively, and further, the medium was replaced with a medium to which liquiritin was added at each final concentration of 5 μM, 10 μM, or 20 μM, and the culture was continued.
The case of same treatment without adding liquiritin (liquiritin concentration=0 μM) was used as a control. […]
The content of DNA in the above-mentioned sample was measured using a DNA quantification kit (“DNA Assay Kit”, manufactured by Cosmo Bio Company, Limited) (n=4 for each) and used as an index of cell number. […]

Question: Which results are given for `O=C1C[C@@H](c2ccc(O[C@@H]3O[C@H](CO)[C@@H](O)[C@H](O)[C@H]3O)cc2)Oc2cc(O)ccc21` [liquiritin, (2S)-2,3-dihydro-7-hydroxy-2-[4-(β-D-glucopyranosyloxy)phenyl]-4H-1-benzopyran-4-one]?
Answer: absorbance at 620 nm of solubilized Alcian blue dye compared to the control ([1]; 20 μM liquiritin, P<0.05 (FIG. 1)): significant increase; glycosaminoglycan stained with Alcian blue in cultured cells ([1]; not less than 10 μM liquiritin, vs control (FIG. 1)): increased; cell number on day 24 of culture ([2]; at 10 μM and 20 μM significant at P<0.05 vs control (FIG. 4)): increased with the addition concentration; cytotoxicity ([2]; concentration range 10 μM to 20 μM, ATDC5 cells): does not exhibit cytotoxicity; amount of sulfated glycosaminoglycan contained in cell digestive fluid ([3]; 5 μM to 20 μM liquiritin, day 24 of culture, P<0.01 vs control (FIG. 2)): significant increase; concentration promoting production of glycosaminoglycan by chondrocytes (as low as) ([3]; ATDC5 cells, conclusion from results): 5 µM; content of DNA in the cell digestive fluid (index of cell number) [4]: increased with the addition concentration
